Test results reported in US10273237B2, “Imidazopyridazine compounds useful as modulators of IL-12, IL-23 and/or IFN-α responses” (BRISTOL-MYERS SQUIBB COMPANY, priority 2013, dated 2019).

Columns and labels:
[1] = molecular target: T1, His-tagged protein corresponding to amino acids 575-869 of human Tyk2 (Homo sapiens, UniProt P29597); assay: Probe displacement assay (scintillation proximity, radiolabeled probe); type: binding; conditions: 2.5 nM Tyk2 (575-869), 40 nM [3H] probe, 30 minutes at room temperature
T1 construct: made in house
T1 sequence (P29597 with tags, fused parts or gaps): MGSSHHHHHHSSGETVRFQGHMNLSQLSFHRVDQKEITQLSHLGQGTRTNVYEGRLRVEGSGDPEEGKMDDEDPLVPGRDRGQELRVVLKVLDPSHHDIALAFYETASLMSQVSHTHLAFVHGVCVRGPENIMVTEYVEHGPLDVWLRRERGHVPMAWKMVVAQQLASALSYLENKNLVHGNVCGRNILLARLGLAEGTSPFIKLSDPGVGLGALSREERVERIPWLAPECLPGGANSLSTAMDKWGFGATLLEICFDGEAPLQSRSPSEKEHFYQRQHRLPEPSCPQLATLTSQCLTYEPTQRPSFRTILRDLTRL
Method: The preparation of radiolabeled probe, (R)—N-(1-(3-(8-methyl-5-(methylamino)-8H-imidazo[4,5-d]thiazolo[5,4-b]pyridin-2-yl)phenyl)ethyl)-2-([^3H]methylsulfonyl)benzamide, was performed as described below: […]

[2] = system: IL-23-stimulated Kit225 T cells with STAT-dependent luciferase reporter; assay: Kit225 T cell assay, STAT-dependent luciferase reporter, IL-23 stimulated; type: cell-based, human; conditions: Homo sapiens, KIT225, 20 ng/mL human recombinant IL-23, 5-6 hours, read-out: IL-23 Kit225 Reporter, LE (IC50)
How it was run: (§1)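 Kit225 T cells carrying a stably integrated STAT-dependent luciferase reporter, in RPMI with 10% heat-inactivated FBS, stimulated with 20 ng/mL human recombinant IL-23 or 200 U/mL human recombinant IFNα for 5-6 h. Luciferase expression read by Steady-Glo luminescence.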

[3] = system: IFNα-stimulated Kit225 T cells with STAT-dependent luciferase reporter; assay: Kit225 T cell assay, STAT-dependent luciferase reporter, IFNα stimulated; type: cell-based, human; conditions: Homo sapiens, KIT225, 200 U/mL human recombinant IFNα, 5-6 hours, read-out: IFNa Kit225 Reporter, LE (IC50)
How it was run: as §1

| SMILES | EC50 [1] | IC50 [2] | IC50 [3] |
| --- | --- | --- | --- |
| CNc1cc(Nc2cccn(-c3ccccc3)c2=O)nn2c(C(=O)N[C@H]3CCCC[C@H]3O)cnc12 [Example 188] | 21 nM | 70 nM | 230 nM |
| CNc1cc(Nc2cccn(-c3ccccn3)c2=O)nn2c(C(=O)NCc3nccs3)cnc12 [Example 190] | 23 nM | 260 nM | 290 nM |
| CNc1cc(Nc2cccn(-c3ccccn3)c2=O)nn2c(C(=O)NCC(C)(C)CO)cnc12 [Example 197] | 16 nM | 60 nM | 60 nM |
| CNc1cc(Nc2cccn(-c3ccc(S(C)(=O)=O)cc3)c2=O)nn2c(C(=O)NC3CC3)cnc12 [Example 202] | 8 nM | 350 nM | 330 nM |
| CNc1cc(Nc2cccn(C)c2=O)nn2c(C(=O)NC(C)(C)C)cnc12 [Example 211] | 57 nM | 360 nM | 490 nM |
| CNc1cc(Nc2cccn(C)c2=O)nn2c(C(=O)NCC3CCC3)cnc12 [Example 214] | 73 nM | 360 nM | 810 nM |
| CNc1cc(Nc2cccn(C3CCN(C(=O)c4ncc[nH]4)CC3)c2=O)nn2c(C(=O)NC3CC3)cnc12 [Example 245] | 7 nM | 290 nM | 260 nM |
